Assay results published in US20050069531A1, “Use of hyaluronidase in the manufacture of an ophthalmic preparation for liquefying vitreous humor in the treatment of eye disorders” (priority 1995, published 2005).
Read-outs that look alike come from different tables or passages of the source.

Tested on: eyes of rabbits
Conditions: rabbit, intravitreal
Description: Fifty-two (52) healthy rabbits of the New Zealand Cross Variety (26 male, 26 female) weighing 1.5 kg to 2.5 kg, were individually marked for identification and were housed individually in suspended cages. The animals received a commercially available pelleted rabbit feed on a daily basis, with tap water available ad libitum.
The animals were divided into thirteen groups of 4 animals each (2 male, 2 female). Two animals in each group (1 male, 1 female) were selected for pretreatment fundus photography and fluorescein angiography.
The fundus photography was performed by restraining the animals and visualizing the optic nerve, retinal arcades with fundus with a KOWA® RC-3 Fundus Camera loaded with Kodak Gold 200 ASA film.
The fluorescein angiography involved a 1.5 ml injection of 2% sterile fluorescein solution via the marginal ear vein. Approximately 30 seconds post-injection the fluorescein was visualized upon localization of the optic nerve, retinal vessels and fundus.
The following day, each animal was anesthetized by intravenous administration of a combination of 34 mg/kg of ketamine hydrochloride and 5 mg/kg xylazine. The eyelids were retracted using a lid speculum, and the eyes were disinfected with an iodine-providone wash.
The experimental treatments administered to each animal group were as follows:
The day following the injections (Day 1), the 26 animals which were subjected to the fundus photography and fluorescein angiography were observed using the same methods as for the pre-dose examination.
The eyes were then surgically removed and placed in a fixture solution of 2.5% glutaraldehyde with 0.1 M phosphate buffered saline at pH 7.37.
Alternatively, one randomly selected rabbit was euthanized by pentobarbital injection but then fixed by intracardiac injection of the glutaraldehyde solution into the left ventricle to determine the effect of the fixation procedure on the histology findings within the enucleated eyes.
On Day 7, the 13 female rabbits that had been previously photographed and angiography performed were subjected to the same observations following the methods previously described.
The remaining 26 animals were euthanized as described above 7 days after dosing. The eyes were fixed in the same manner as those which had been fixed on day 2. Also, one randomly selected rabbit was subjected to the same intracardiac glutaraldehyde fixation procedure described hereabove for the previously randomly selected animal.
The eyes of the animals treated in this example were examined grossly and microscopically for evidence of treatment-related toxicities.

thimerosal [BSS+thimerosal]
evidence of treatment-related toxicity in the eyes (gross and microscopic examination) (0.0075 mg thimerosal in BSS, day 2 post-dose): free of toxicity
toxic effects observed on day 7 (FIG. 3) (0.0075 mg thimerosal in BSS, day 7): significant toxic effects
evidence of treatment-related toxicity in the eyes (gross and microscopic examination) (0.0075 mg thimerosal in BSS, day 7 post-dose): breakdown of the blood-retinal barrier
evidence of treatment-related toxicity in the eyes (gross and microscopic examination) (0.025 mg thimerosal in BSS, days 2 and 7 post-dose): severe treatment-related toxic effects
toxic effects in the eyes of rabbits (conclusion) (at the dosages tested): do cause toxic effects
